Experimental data: patent US20260055121A1, “TYK2 INHIBITORS AND USES THEREOF” (Sudo Biosciences Limited, priority 2022, published 2026)

How the values were obtained:
TYK2 Pseudokinase (JH2) [1] = molecular target: T1, TYK2 Pseudokinase (JH2) (Homo sapiens, UniProt P29597); assay: HEK-Blue IL-23 reporter assay (STAT3-inducible SEAP) for profiling TYK2 pseudokinase (JH2) inhibition; type: cell-based; details: HEK-Blue IL-23 cells, 10 ng/mL human recombinant IL-23, SEAP readout; read-out: IL23
T1 construct: HEK-Blue™ IL-23 and IFNα/0 cells with a stably-integrated cytokine receptor and STAT3 or STAT1; endogenous in cells; host or cells: HEK-Blue IL-23 and HEK-Blue IFNα/β reporter cells
Method: (§1) HEK-Blue™ IL-23 and IFNα/0 cells with a stably-integrated cytokine receptor and STAT3 or STAT1 express STAT-inducible secreted embryonic alkaline phosphatase (SEAP) reporter gene upon cytokine stimulation. These cells are plated in DMEM (Gibco) containing 10% heat-inactivated FBS (Gibco) and 100 U/mL PenStrep (Gibco) at 37° C. under 5% CO2 conditions for 20-22 hours. The cells are then pretreated with serially diluted test compounds for 60 min prior to stimulation with either 10 ng/mL human recombinant IL-23 (Miltenyl Biotech) or 1 ng/mL human recombinant IFNα (InvivoGen) for 22-24 hours for IL-23 or 16-18 h for IFNα. SEAP induction is measured using the QUANTI Blue™ Solution (InvivoGen) according to the manufacturer's instructions.

TYK2 Pseudokinase (JH2) [2] = molecular target: T1, TYK2 Pseudokinase (JH2); assay: HEK-Blue IFNα/β reporter assay (STAT1-inducible SEAP) for profiling TYK2 pseudokinase (JH2) inhibition; type: cell-based; details: HEK-Blue IFNα/β cells, 1 ng/mL human recombinant IFNα, SEAP readout
Method: as §1

JAK1-JH1 = molecular target: T2, JAK1-JH1 (Homo sapiens, UniProt P23458); assay: HTRF-based selectivity assay, JAK1 catalytic domain; type: biochemical; details: kinase domain (JH1), 21.43 μM ATP
T2 construct: recombinant purified His or GST-tagged catalytic domain for each enzyme; made in house
Method: The ability of compounds to inhibit the activity of JAK1, JAK2, JAK3 and TYK2 is measured using a recombinant purified His or GST-tagged catalytic domain for each enzyme (JAK1, JAK2 and TYK2 are generated in-house; JAK3 was purchased from Carna biosciences, Cat #08-046) in an HTRF format biochemical assay. The reactions employs a commercial peptide substrate from Cisbio (Cat #62TK0PEC). The basic assay protocol is as follows: first, 2.5 μL of diluted compounds (4×) in DMSO are dispensed into a 384-well Optiplate. Next, 2.5 μL of enzyme (final concentrations for enzymes are: TYK2- 700 ng/mL, JAK1- 80.6 ng/mL, JAK2- 2.1 ng/mL and JAK3- 171.8 ng/mL) is added and incubated at RT for 5-20 min. Finally, 5 μl of mixture of 2×ATP [Final concentration 20 μM for TYK2, 21.43 μM for JAK1, 14.7 μM for JAK2 and 2.12 μM for JAK3]^+2× Substrate [Final concentration 217 nM for TYK2, 454.7 nM for JAK1, 200 nM for JAK2 and 257.4 nM for JAK3] is added to 384 well Optiplate. Composition of Kinase assay buffer used in the assay is as follows: HEPES 50 mM, EGTA 1 mM, MgCl2 10 mM, DTT 2 mM, Tween-20 0.01% and water. Then the plates are shaken and then incubated at 26.5° C. for 60 min.

IL-2 = assay: HEK-Blue IL-2 reporter assay (STAT5-inducible SEAP) for determining selectivity; type: cell-based; details: HEK-Blue IL-2 reporter cells, 4 ng/mL human recombinant IL-2, SEAP readout
Method: (§2) HEK-Blue™ IL-2 and IFNγ reporter cells with a stably-integrated cytokine receptor and STAT5 or STAT1 express STAT-inducible secreted embryonic alkaline phosphatase (SEAP) reporter gene upon cytokine stimulation. These cells were plated in DMEM (Gibco) containing 10% heat-inactivated FBS (Gibco) and 100 U/mL PenStrep (Gibco) at 37° C. under 5% CO2 conditions for 20-22 hours. The cells were then pretreated with serially diluted test compounds for 60 min prior to stimulation with either 4 ng/mL human recombinant TL-2 (Miltenyl Biotech) or 50 ng/mL human recombinant IFNγ (InvivoGen) for 24 hours. SEAP induction was measured using the QUANTI-Blue™ Solution (InvivoGen) according to the manufacturer's instructions.

IFN-γ = assay: HEK-Blue IFNγ reporter assay (STAT1-inducible SEAP) for determining selectivity; type: cell-based; details: HEK-Blue IFNγ reporter cells, 50 ng/mL human recombinant IFNγ, SEAP readout
Method: as §2

T1 sequence (P29597 whole entry): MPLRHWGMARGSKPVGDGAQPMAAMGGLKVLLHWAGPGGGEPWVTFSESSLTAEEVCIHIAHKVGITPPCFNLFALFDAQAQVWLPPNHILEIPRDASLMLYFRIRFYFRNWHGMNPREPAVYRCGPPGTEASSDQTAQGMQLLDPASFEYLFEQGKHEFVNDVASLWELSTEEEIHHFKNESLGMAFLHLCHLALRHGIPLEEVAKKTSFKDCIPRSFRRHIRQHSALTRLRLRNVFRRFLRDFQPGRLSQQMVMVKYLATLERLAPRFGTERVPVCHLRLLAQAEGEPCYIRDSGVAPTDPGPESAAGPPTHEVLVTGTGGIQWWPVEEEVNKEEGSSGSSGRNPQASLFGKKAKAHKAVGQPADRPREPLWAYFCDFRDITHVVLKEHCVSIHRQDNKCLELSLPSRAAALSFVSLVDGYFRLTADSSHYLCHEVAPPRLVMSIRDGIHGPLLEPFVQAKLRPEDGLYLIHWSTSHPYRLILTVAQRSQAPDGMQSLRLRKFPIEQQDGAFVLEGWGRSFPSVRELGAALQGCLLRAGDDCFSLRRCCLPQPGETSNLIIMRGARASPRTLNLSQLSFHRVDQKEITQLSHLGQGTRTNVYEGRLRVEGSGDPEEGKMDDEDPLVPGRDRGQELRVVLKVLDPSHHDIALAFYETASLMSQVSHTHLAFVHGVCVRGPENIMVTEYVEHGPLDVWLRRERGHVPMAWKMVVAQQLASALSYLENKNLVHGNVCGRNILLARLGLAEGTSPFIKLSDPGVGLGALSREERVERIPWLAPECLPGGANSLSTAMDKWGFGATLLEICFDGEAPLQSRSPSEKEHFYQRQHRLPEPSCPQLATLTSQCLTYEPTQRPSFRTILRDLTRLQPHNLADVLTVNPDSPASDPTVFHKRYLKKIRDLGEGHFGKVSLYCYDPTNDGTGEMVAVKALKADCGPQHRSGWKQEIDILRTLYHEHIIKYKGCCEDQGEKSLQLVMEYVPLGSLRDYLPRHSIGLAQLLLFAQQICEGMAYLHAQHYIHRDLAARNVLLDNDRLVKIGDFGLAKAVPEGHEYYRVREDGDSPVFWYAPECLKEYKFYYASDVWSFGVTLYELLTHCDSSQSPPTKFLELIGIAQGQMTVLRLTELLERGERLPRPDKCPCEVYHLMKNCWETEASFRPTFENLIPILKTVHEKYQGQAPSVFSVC
T2 sequence (P23458 875-1153 limits assumed): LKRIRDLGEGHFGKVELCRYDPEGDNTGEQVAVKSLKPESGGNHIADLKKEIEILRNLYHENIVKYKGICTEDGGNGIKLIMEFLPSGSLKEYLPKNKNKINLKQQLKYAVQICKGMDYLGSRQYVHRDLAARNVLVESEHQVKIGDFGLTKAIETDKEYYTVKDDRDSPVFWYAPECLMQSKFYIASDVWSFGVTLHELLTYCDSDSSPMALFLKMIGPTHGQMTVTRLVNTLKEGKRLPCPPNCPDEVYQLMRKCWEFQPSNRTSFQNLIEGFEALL

IC50 (TYK2 Pseudokinase (JH2) [1]) [nM] | IC50 (TYK2 Pseudokinase (JH2) [2]) [nM] | IC50 (JAK1-JH1) [nM] | IC50 (IL-2) [nM] | IC50 (IFN-γ) [nM] | SMILES
< 30 | < 30 |  |  |  | CCONC(=O)c1nnc(NC(=O)C2CC2)cc1Nc1nccc2c1N(C)[C@@H](C)c1nn(C)nc1-2 (single isomer, unassigned) [Compound 16]
300 to 1000 |  | > 1000 |  |  | Cn1cc2c(n1)-c1cccc(Nc3cc(NC(=O)C4CC4)nc4[nH]n(C)c(=O)c34)c1OC2 [Compound 1, N-(2-methyl-4-((2-methyl-2,4-dihydrochromeno[4,3-c]pyrazol-6-yl)amino)-3-oxo-2,3-dihydro-1H-pyrazolo[3,4-b]pyridin-6-yl)cyclopropanecarboxamide]
< 30 | < 30 | > 1000 |  |  | CN1Cc2cn(C)nc2-c2cccc(Nc3cc(NC(=O)C4CC4)nc4[nH]n(C)c(=O)c34)c21 [Compound 2, N-(4-((2,5-dimethyl-4,5-dihydro-2H-pyrazolo[4,3-c]quinolin-6-yl)amino)-2-methyl-3-oxo-2,3-dihydro-1H-pyrazolo[3,4-b]pyridin-6-yl)cyclopropanecarboxamide]
< 30 | 30 to 300 |  | > 1000 | > 1000 | Cc1nc2n(n1)-c1cccc(Nc3cc(NC(=O)C4CC4)nc4[nH]n(C)c(=O)c34)c1N(C)[C@H]2C [Compound 3, (S)—N-(2-methyl-3-oxo-4-((2,4,5-trimethyl-4,5-dihydro-[1,2,4]triazolo[1,5-a]quinoxalin-6-yl)amino)-2,3-dihydro-1H-pyrazolo[3,4-b]pyridin-6-yl)cyclopropanecarboxamide]
> 1000 | > 1000 |  |  |  | [2H]C([2H])([2H])NC(=O)c1c(Nc2cccc3c2N(C)[C@@H](C)c2nc(C)nn2-3)cc(NC(=O)C2CC2)nc1N [Compound 4, (S)-2-amino-6-(cyclopropanecarboxamido)-N-(methyl-d3)-4-((2,4,5-trimethyl-4,5-dihydro-[1,2,4]triazolo[1,5-a]quinoxalin-6-yl)amino)nicotinamide]
> 1000 | > 1000 |  |  |  | CNC(=O)c1cnc2[nH]ccc2c1Nc1cccc2c1N(C)CCn1cnnc1-2 [Compound 6, N-methyl-4-((7-methyl-6,7-dihydro-5H-benzo[f][1,2,4]triazolo[4,3-d][1,4]diazepin-8-yl)amino)-1H-pyrrolo[2,3-b]pyridine-5-carboxamide]
> 1000 | > 1000 |  |  |  | CNC(=O)c1cnc2[nH]ccc2c1Nc1cccc2c1N(C)Cc1cn(C)nc1-2 [Compound 7, 4-((2,5-dimethyl-4,5-dihydro-2H-pyrazolo[4,3-c]quinolin-6-yl)amino)-N-methyl-1H-pyrrolo[2,3-b]pyridine-5-carboxamide]
< 30 | 30 to 300 |  |  |  | CONC(=O)c1cnc(NC(=O)C2CC2)cc1Nc1cccc2c1N(C)[C@@H](C)c1nc(C)nn1-2 [Compound 8, (S)-6-(cyclopropanecarboxamido)-N-methoxy-4-((2,4,5-trimethyl-4,5-dihydro-[1,2,4]triazolo[1,5-a]quinoxalin-6-yl)amino)nicotinamide]
< 30 | < 30 |  |  |  | CCONC(=O)c1cnc(NC(=O)C2CC2)cc1Nc1cccc2c1N(C)[C@@H](C)c1nc(C)nn1-2 [Compound 9, (S)-6-(cyclopropanecarboxamido)-N-ethoxy-4-((2,4,5-trimethyl-4,5-dihydro-[1,2,4]triazolo[1,5-a]quinoxalin-6-yl)amino)nicotinamide]
< 30 | 30 to 300 |  |  |  | CONC(=O)c1nnc(NC(=O)C2CC2)cc1Nc1cccc2c1N(C)[C@@H](C)c1nc(C)nn1-2 [Compound 10, (S)-6-(cyclopropanecarboxamido)-N-methoxy-4-((2,4,5-trimethyl-4,5-dihydro-[1,2,4]triazolo[1,5-a]quinoxalin-6-yl)amino)pyridazine-3-carboxamide]
< 30 | < 30 |  |  |  | CONC(=O)c1nnc(Nc2ccc(F)cn2)cc1Nc1cccc2c1N(C)[C@@H](C)c1nc(C)nn1-2 [Compound 11, (S)-6-((5-fluoropyridin-2-yl)amino)-N-methoxy-4-((2,4,5-trimethyl-4,5-dihydro-[1,2,4]triazolo[1,5-a]quinoxalin-6-yl)amino)pyridazine-3-carboxamide]
< 30 | < 30 |  |  |  | CONC(=O)c1nnc(Nc2cc(C)nc(C)n2)cc1Nc1cccc2c1N(C)[C@@H](C)c1nc(C)nn1-2 [Compound 12, (S)-6-((2,6-dimethylpyrimidin-4-yl)amino)-N-methoxy-4-((2,4,5-trimethyl-4,5-dihydro-[1,2,4]triazolo[1,5-a]quinoxalin-6-yl)amino)pyridazine-3-carboxamide]
< 30 | 30 to 300 |  |  |  | CCONC(=O)c1nnc(NC(=O)C2CC2)cc1Nc1cccc2c1N(C)[C@@H](C)c1nc(C)nn1-2 [Compound 13, (S)-6-(cyclopropanecarboxamido)-N-ethoxy-4-((2,4,5-trimethyl-4,5-dihydro-[1,2,4]triazolo[1,5-a]quinoxalin-6-yl)amino)pyridazine-3-carboxamide]
< 30 | < 30 |  |  |  | CCONC(=O)c1nnc(Nc2cc(C)nc(C)n2)cc1Nc1cccc2c1N(C)[C@@H](C)c1nc(C)nn1-2 [Compound 14, (S)-6-((2,6-dimethylpyrimidin-4-yl)amino)-N-ethoxy-4-((2,4,5-trimethyl-4,5-dihydro-[1,2,4]triazolo[1,5-a]quinoxalin-6-yl)amino)pyridazine-3-carboxamide]
< 30 | < 30 |  |  |  | CCONC(=O)c1nnc(Nc2ccc(F)cn2)cc1Nc1cccc2c1N(C)[C@@H](C)c1nc(C)nn1-2 [Compound 15, (S)—N-ethoxy-6-((5-fluoropyridin-2-yl)amino)-4-((2,4,5-trimethyl-4,5-dihydro-[1,2,4]triazolo[1,5-a]quinoxalin-6-yl)amino)pyridazine-3-carboxamide]
